According to patent publication US10584115B2, “Substituted pyridine and pyrazine BMI-1 inhibitors” (PTC Therapeutics, Inc., priority 2013, dated 2020):

Test system: Bmi-1 protein
Experiment: Sandwich ELISA Assay (Bmi-1 protein level in HT-1080 cells after compound treatment)
Assay type: cell-based
Conditions: Table 1, Bmi-1 sandwich ELISA, read-out: ELISA EC50 value for Bmi-1 protein
Method in brief: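 Sandwich ELISA quantified Bmi-1 protein against recombinant standard (125–8000 pg/mL), with lysates captured overnight at 4 °C and signal by HRP/TMB at 450 nm (570 nm reference). Lysates came from HT-1080 cells incubated 40–48 h with test compounds in 0.5% DMSO.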

Row | EC50 | SMILES
1 | 0.01 to 0.1 µM | COc1ccc(Nc2cncc(-n3c(C)cc4ccccc43)n2)cc1 [compound 164, N-(4-methoxyphenyl)-6-(2-methyl-1H-indol-1-yl)pyrazin-2-amine]
2 | 0.1 to 3 µM | Cc1nc2cnccc2n1-c1cncc(Nc2ccc(C(F)(F)F)cc2)n1 [compound 166, 6-(2-methyl-1H-imidazo[4,5-c]pyridin-1-yl)-N-[4-(trifluoromethyl)phenyl]pyrazin-2-amine]
3 | 0.1 to 3 µM | CSc1nc2ccccc2n1-c1cncc(Nc2ccc(OC(F)(F)F)cc2)n1 [compound 167, 6-[2-(methylsulfanyl)-1H-benzimidazol-1-yl]-N-[4-(trifluoromethoxy)phenyl]pyrazin-2-amine]
4 | 0.01 to 0.1 µM | Cc1ccc(Nc2cncc(-c3c(C(F)(F)F)nc4cnccn34)n2)cc1 [compound 168, N-(4-methylphenyl)-6-[2-(trifluoromethyl)imidazo[1,2-a]pyrazin-3-yl]pyrazin-2-amine]
5 | 0.01 to 0.1 µM | O=[N+]([O-])c1cc(Nc2ccc(OC(F)F)cc2)nc(-c2c(C(F)(F)F)nc3ccccn23)c1 [compound 169, N-[4-(difluoromethoxy)phenyl]-4-nitro-6-[2-(trifluoromethyl)imidazo[1,2-a]pyridin-3-yl]pyridin-2-amine]
6 | 0.1 to 3 µM | Nc1cc(Nc2ccc(OC(F)F)cc2)nc(-c2c(C(F)(F)F)nc3ccccn23)c1 [compound 170, N^2-[4-(difluoromethoxy)phenyl]-6-[2-(trifluoromethyl)imidazo[1,2-a]pyridin-3-yl]pyridine-2,4-diamine]
7 | 0.01 to 0.1 µM | OCCNc1cc(Nc2ccc(OC(F)F)cc2)nc(-c2c(C(F)(F)F)nc3ccccn23)c1 [compound 171]
8 | 0.01 to 0.1 µM | COCCNc1cc(Nc2ccc(OC(F)F)cc2)nc(-c2c(C(F)(F)F)nc3ccccn23)c1 [compound 172, N^2-[4-(difluoromethoxy)phenyl]-N^4-(2-methoxyethyl)-6-[2-(trifluoromethyl)imidazo[1,2-a]pyridin-3-yl]pyridine-2,4-diamine]
9 | 0.1 to 3 µM | CSc1cc(Nc2ccc(C(F)(F)F)cc2)nc(-c2c(C(F)(F)F)nc3ccccn23)c1 [compound 173, 4-(methylsulfanyl)-6-[2-(trifluoromethyl)imidazo[1,2-a]pyridin-3-yl]-N-[4-(trifluoromethyl)phenyl]pyridin-2-amine]
10 | 0.1 to 3 µM | COc1ccc(Nc2cccc(-n3c(C)cc4ccccc43)n2)cc1 [compound 174, N-(4-methoxyphenyl)-6-(2-methyl-1H-indol-1-yl)pyridin-2-amine]
11 | 0.01 to 0.1 µM | CCc1nc2cc(F)c(F)cc2n1-c1cncc(Nc2ccc(C(F)(F)F)cc2)n1 [compound 177, 6-(2-ethyl-5,6-difluoro-1H-benzimidazol-1-yl)-N-[4-(trifluoromethyl)phenyl]pyrazin-2-amine]
12 | 0.01 to 0.1 µM | CSc1nc2ccccc2n1-c1cncc(Nc2ccc(OC(F)F)cc2)n1 [compound 181, N-[4-(difluoromethoxy)phenyl]-6-[2-(methylsulfanyl)-1H-benzimidazol-1-yl]pyrazin-2-amine]
13 | 0.01 to 0.1 µM | Fc1cc2nc(C3CC3)n(-c3cncc(Nc4ccc(C(F)(F)F)cc4)n3)c2cc1F [compound 182, 6-(2-cyclopropyl-5,6-difluoro-1H-benzimidazol-1-yl)-N-[4-(trifluoromethyl)phenyl]pyrazin-2-amine]
14 | 0.01 to 0.1 µM | CNc1nc2ccccc2n1-c1cncc(Nc2ccc(OC(F)(F)F)cc2)n1 [compound 183, N-methyl-1-(6-{[4-(trifluoromethoxy)phenyl]amino}pyrazin-2-yl)-1H-benzimidazol-2-amine]
15 | 0.1 to 3 µM | N#Cc1nc2ccccc2n1-c1cncc(Nc2ccc(OC(F)(F)F)cc2)n1 [compound 184, 1-(6-{[4-(trifluoromethoxy)phenyl]amino}pyrazin-2-yl)-1H-benzimidazole-2-carbonitrile]
16 | 0.1 to 3 µM | Cc1nc2ccccc2n1-c1cncc(Nc2ccc(C(N)=O)cc2)n1 [compound 185, 4-{[6-(2-methyl-1H-benzimidazol-1-yl)pyrazin-2-yl]amino}benzamide]
17 | 0.1 to 3 µM | CNC(=O)c1ccc(Nc2cncc(-n3c(C)nc4ccccc43)n2)cc1 [compound 186, N-methyl-4-{[6-(2-methyl-1H-benzimidazol-1-yl)pyrazin-2-yl]amino}benzamide]
18 | 0.001 to 0.01 µM | CNc1nc2ccccc2n1-c1cncc(Nc2ccc(OC(F)F)cc2)n1 [compound 187, 1-(6-{[4-(difluoromethoxy)phenyl]amino}pyrazin-2-yl)-N-methyl-1H-benzimidazol-2-amine]
19 | 0.01 to 0.1 µM | N#Cc1nc2ccccc2n1-c1cncc(Nc2ccc(OC(F)F)cc2)n1 [compound 188, 1-(6-{[4-(difluoromethoxy)phenyl]amino}pyrazin-2-yl)-1H-benzimidazole-2-carbonitrile]

Row | EC50 | SMILES
20 | 0.001 to 0.01 µM | CSc1nc2ccccn2c1-c1cncc(Nc2ccc(C(F)(F)F)cc2)n1 [compound 191, 6-[2-(methylsulfanyl)imidazo[1,2-a]pyridin-3-yl]-N-[4-(trifluoromethyl)phenyl]pyrazin-2-amine]
21 | 0.01 to 0.1 µM | Cc1nc2cc(Cl)c(Cl)cc2n1-c1cncc(Nc2ccc(OC(F)(F)F)cc2)n1 [compound 192, 6-(5,6-dichloro-2-methyl-1H-benzimidazol-1-yl)-N-[4-(trifluoromethoxy)phenyl]pyrazin-2-amine]
22 | 0.01 to 0.1 µM | Cc1nc2cc(Cl)c(Cl)cc2n1-c1cncc(Nc2ccc(C(F)(F)F)cc2)n1 [compound 193, 6-(5,6-dichloro-2-methyl-1H-benzimidazol-1-yl)-N-[4-(trifluoromethyl)phenyl]pyrazin-2-amine]
23 | 0.01 to 0.1 µM | FC(F)(F)c1ccc(Nc2cccc(-c3c(C(F)(F)F)nc4cnccn34)n2)cc1 [compound 194, 6-[2-(trifluoromethyl)imidazo[1,2-a]pyrazin-3-yl]-N-[4-(trifluoromethyl)phenyl]pyridin-2-amine]
24 | 0.1 to 3 µM | FC(F)(F)Oc1ccc(Nc2cccc(-c3c(C(F)(F)F)nc4cnccn34)n2)cc1 [compound 195, N-[4-(trifluoromethoxy)phenyl]-6-[2-(trifluoromethyl)imidazo[1,2-a]pyrazin-3-yl]pyridin-2-amine]
25 | 0.01 to 0.1 µM | FC(F)Oc1ccc(Nc2cccc(-c3c(C(F)(F)F)nc4cnccn34)n2)cc1 [compound 196, N-[4-(difluoromethoxy)phenyl]-6-[2-(trifluoromethyl)imidazo[1,2-a]pyrazin-3-yl]pyridin-2-amine]
26 | 0.01 to 0.1 µM | O=[N+]([O-])c1cc(Nc2ccc(OC(F)(F)F)cc2)nc(-c2c(C(F)(F)F)nc3ccccn23)c1 [compound 197, 4-nitro-N-[4-(trifluoromethoxy)phenyl]-6-[2-(trifluoromethyl)imidazo[1,2-a]pyridin-3-yl]pyridin-2-amine]
27 | 0.01 to 0.1 µM | Nc1cc(Nc2ccc(OC(F)(F)F)cc2)nc(-c2c(C(F)(F)F)nc3ccccn23)c1 [compound 198, N^2-[4-(trifluoromethoxy)phenyl]-6-[2-(trifluoromethyl)imidazo[1,2-a]pyridin-3-yl]pyridine-2,4-diamine]
28 | 0.001 to 0.01 µM | Cc1nc2cc(F)c(F)cc2n1-c1cncc(Nc2ccc(OC(F)F)cc2)n1 [compound 199, N-[4-(difluoromethoxy)phenyl]-6-(5,6-difluoro-2-methyl-1H-benzimidazol-1-yl)pyrazin-2-amine]
29 | 0.1 to 3 µM | FC(F)(F)c1nc2ccccn2c1-c1cncc(Nc2cnc(Cl)nc2)n1 [compound 200, 2-chloro-N-{6-[2-(trifluoromethyl)imidazo[1,2-a]pyridin-3-yl]pyrazin-2-yl}pyrimidin-5-amine]
30 | 0.1 to 3 µM | Oc1ccc(Nc2cncc(-c3c(C(F)(F)F)nc4ccccn34)n2)cc1 [compound 207, 4-({6-[2-(trifluoromethyl)imidazo[1,2-a]pyridin-3-yl]pyrazin-2-yl}amino)phenol]
31 | 0.01 to 0.1 µM | Cc1nc2ccccc2n1-c1cncc(Nc2ccc(C(F)(F)F)c(F)c2)n1 [compound 209, N-[3-fluoro-4-(trifluoromethyl)phenyl]-6-(2-methyl-1H-benzimidazol-1-yl)pyrazin-2-amine]
32 | 0.01 to 0.1 µM | N#Cc1cc(Nc2ccc(C(F)(F)F)cc2)nc(-c2c(C(F)(F)F)nc3ccccn23)c1 [compound 210, 2-[2-(trifluoromethyl)imidazo[1,2-a]pyridin-3-yl]-6-{[4-(trifluoromethyl)phenyl]amino}pyridine-4-carbonitrile]
33 | 0.1 to 3 µM | FC(F)(F)Sc1ccc(Nc2cncc(-c3c(C(F)(F)F)nc4ccccn34)n2)cc1 [compound 211, 6-[2-(trifluoromethyl)imidazo[1,2-a]pyridin-3-yl]-N-{4-[(trifluoromethyl)sulfanyl]phenyl}pyrazin-2-amine]
34 | 0.1 to 3 µM | O=C(c1ccc(Nc2cncc(-c3c(C(F)(F)F)nc4ccccn34)n2)cc1)C(F)(F)F [compound 212, 2,2,2-trifluoro-1-[4-({6-[2-(trifluoromethyl)imidazo[1,2-a]pyridin-3-yl]pyrazin-2-yl}amino)phenyl]ethanone]
35 | 0.1 to 3 µM | OCc1nc2ccccn2c1-c1cncc(Nc2ccc(OC(F)(F)F)cc2)n1 [compound 213, [3-(6-{[4-(trifluoromethoxy)phenyl]amino}pyrazin-2-yl)imidazo[1,2-a]pyridin-2-yl]methanol]
36 | < 0.001 µM | Cc1ccc(Nc2cncc(-c3c(CO)nc4ccccn34)n2)cc1 [compound 214, (3-{6-[(4-methylphenyl)amino]pyrazin-2-yl}imidazo[1,2-a]pyridin-2-yl)methanol]
37 | 0.001 to 0.01 µM | OCc1nc2ccccn2c1-c1cncc(Nc2ccc(OC(F)F)cc2)n1 [compound 215, [3-(6-{[4-(difluoromethoxy)phenyl]amino}pyrazin-2-yl)imidazo[1,2-a]pyridin-2-yl]methanol]
38 | 0.01 to 0.1 µM | N#Cc1cc(Nc2ccc(OC(F)(F)F)cc2)nc(-c2c(C(F)(F)F)nc3ccccn23)c1 [compound 218, 2-{[4-(trifluoromethoxy)phenyl]amino}-6-[2-(trifluoromethyl)imidazo[1,2-a]pyridin-3-yl]pyridine-4-carbonitrile]
